According to patent US5376679A, “Bicyclic or tricyclic biocidal compounds” (Shell Internationale Research Maatschappij B.V., priority 1988, dated 1994):
≈ marks a conversion by molar mass, not a printed value.

Key:
[1] = test system: Fusarium culmorum; test: Activity against seedling wheat blight, soil drench (Fs); type: in vivo; design: scale not given here; conditions: 10 kg/ha, 21 days, activity grade 1 or 2, not defined
Procedure: (d) Activity Against Seedling Wheat Blight (Fusarium culmorum; Fs)
The test is an anti-sporulant one using a soil drench. Surface sterilised wheat seeds (var Waggoner) are inoculated by soaking in an aqueous suspension containing 7×10^5 spores/ml (60 mg seed per 80 ml suspension) at 22° C. for 6 hours. The seeds are then sown in pots (5 per pot) in sand at a depth of 1 cm. 1 day after inoculation and planting the active material is applied at a rate of 10 kg/ha by pouring on a soil drench (concentration 0.36 g/l active material in 12% v/v acetone/water) evenly over the sand. The pots are then transferred to a glasshouse, kept at 25° C. and watered sparingly. 21 days after inoculation the resulting seedlings are removed from the pots and their roots are gently washed. Visual assessment is made based on lesion development on stem base and upper roots in comparison with control seedlings.

[2] = test system: Leptosphaeria nodorum; test: Direct antisporulant activity against wheat leafspot (Ln); type: in vivo; design: scale not given here; conditions: foliar spray, 1 kg/ha; activity grade 1 or 2, not defined
Procedure: (e) Activity Against Wheat Leafspot (Leptosphaeria nodorum; Ln) The test is a direct antisporulant one, using a foliar spray. Leaves of wheat plants ([…]), at the single leaf stage, are inoculated by spraying with an aqueous suspension containing 8×10^5 spores/mi. The inoculated plants are kept for 24 hours in a high humidity compartment prior to treatment. […] After drying, the plants are kept for 5 days under normal glasshouse conditions, followed by assessment. Assessment is based on the percentage of leaf area covered by sporulation compared with that on leaves of control plants.

[3] = test system: Plasmopara viticola; test: Direct protectant activity against vine downy mildew (Pvp); type: in vivo; design: Pvp: direct protectant activity against vine downy mildew: scale not given here; conditions: foliar spray, 1 kg/ha; activity grade 1 or 2, not defined
Text: (a) Direct Protectant Activity Against Vine Downy Mildew (Plasmopara viticola; Pvp)
The test is a direct protectant one, using a foliar spray. The lower surfaces of leaves of whole vine plants (cv Cabernet Sauvignon) are sprayed with a solution of active material in 1:1 v/v water/acetone containing 0.04% w "Triton X-155" (trade mark) (octylphenol polyoxyethylene surfactant), at a dosage of 1 kilogram of active material per hectare using a track sprayer which delivers 620 liters/ha, and after a subsequent 24 hours under normal glasshouse conditions the lower surfaces of the leaves are inoculated by spraying with an aqueous solution containing 10^4 zoosporangia/ml. The inoculated plants are kept for 24 hours in a high humidity compartment, 5 days under normal glasshouse conditions and then returned for a further 24 hours to high humidity. Assessment is based on the percentage of leaf area covered by sporulation compared with that on control leaves.

[4] = test system: Pseudocercosporella herpotrichoides; test: In vitro activity against wheat eyespot (Ph); type: cell-based; design: Ph: activity against wheat eyespot: scale not given here; conditions: in vitro, 100 ppm in agar, 11 days; activity grade 1 or 2, not defined
Procedure: (c) Activity Against Wheat Eyespot (Pseudocercosporella herpotrichoides; Ph)
The test is an in vitro one. Samples are prepared wherein 0.7 mls solution containing 2 mg active material dissolved in acetone is evenly dispersed in 20 ml molten half-strength potato dextrose agar (formed by dissolving 2 g potato extract, 10 g dextrose and 7.5 g agar in 1 liter of water and sterilising for 15 minutes and 121° C.) and the resulting 20 ml portions are allowed to set in 9 cm petri dishes. The concentration of active material in the resulting samples is 100 ppm. Upon setting, two plugs of 5 mm diameter taken from the advancing edge of a stock plate of a 3 to 4 week old culture of P.herpotrichoides on full strength potato dextrose agar, incubated at 20°-22° C. in darkness, are placed, equally spaced on the surface of each sample, mycelial side uppermost. The samples are incubated for 11 days at 20°-22° C. in darkness before assessment. Diametric growth is measured with the width of the plug subtracted and results compared with growth on a sample wherein 0.7 ml acetone containing no active material is dispersed in 20 ml half-strength potato agar.

[5] = test system: Puccinia Recondita; test: Direct protectant activity against wheat brown rust (Pr); type: in vivo; design: scale not given here; conditions: foliar spray, 1 kg/ha, 10 days; activity grade 1 or 2, not defined
Procedure: (i) Activity Against Wheat Brown Rust (Puccinia Recondita; Pr) The test is a direct protectant one using a foliar spray. […] The plants are then sprayed with the test compound at a dosage of 1 kg/ha using a track sprayer as described under (a). Test compounds are applied as solutions or suspensions in a mixture of acetone and water (50:50 v/v) containing 0.04% surfactant ("TWEEN 20"--Trade Mark). 18-24 hours after treatment, the seedlings are inoculated by spraying the plants from all sides with an aqueous spore suspension containing about 10^5 spores/ml. For 18 hours after inoculation, the plants are kept in high humidity conditions at a temperature of 20°-22° C. Thereafter, the plants are kept in ambient glasshouse conditions, that is, in moderate relative humidity and at a temperature of 20° C. The disease is assessed 10 days after inoculation on the basis of the percentage of the plant covered by sporulating pustules compared with that on the control plants.

[6] = test system: Desulfovibrio sp.; test: Minimum inhibitory concentration, sulphate-reducing bacteria (Dsp); type: cell-based; conditions: 30° C., 2, 5 and 10 days
Procedure: The sulphate reducing bacteria Desulfovibrio sp. were cultured in a modified Postgate's Medium B for 48 hours at 30° C. and used directly as an inoculum. The modified Postgate's Medium B consisted of 0.5 g dipotassium hydrogen phosphate, 1 g ammonium chloride, 1 g sodium sulphate, 5 g sodium lactate, 1 g yeast extract, 0.1 ml thioglycolic acid, 0.1 ml ascorbic acid, 0.5 g ferrous sulphate heptahydrate, 750 ml aged seawater and 250 ml distilled water, pH adjusted to 7.8, divided into aliquots and sterilised by autoclaving at 121° C. for 15 minutes. […] Test procedures were as follows: (i) Suphate-reducing Bacteria Test Dilution Series Duplicate aliquots (9.9 ml) of dilution series from the stock solutions of each compound were prepared in a modified Postgate's Medium B described above. These contained 100 ppm compound. These were then inoculated with 0.1 ml of inoculum. After incubation at 30° C., the presence or absence of growth--as indicated by a blackening of the medium due to ferrous sulphide production--was recorded at 2, 5 and 10 days. […] By means of the above tests minimum inhibitory concentrations were determined for the various test compounds.

[7] = test system: Saccharomyces cerevisiae; test: Minimum inhibitory concentration, yeast (Sc); type: cell-based, Saccharomyces cerevisiae (ATCC 9763); conditions: 30° C., 24 and 72 hours
Procedure: Inocula of S. cerevisiae were prepared as for S. aureus, B. subtilis and E. coli, but using yeast malt broth in place of the typtone soya broth. The yeast malt broth was prepared by suspending 3 g yeast extract, 3 g malt extract, 5 g peptone and 10 g dextrose in 1 liter of distilled water, warming to achieve solution and sterilising by autoclaving at 121° C. for 15 minutes.
(§1) Test procedures were as follows:
(§2) (ii) Dilution Series for Other Test Bacteria, Yeast and Filamentous Fungi
(§3) Dilution series from the stock solution of each compound were prepared in sterile distilled water. These contained 50, 100, 500 and 1000 ppm compound. To duplicate wells of a compartmentalised square petri dish 0.3 ml of each test compound concentration was added together with 2.7 ml of one of the microbial inocula described above. This gave final concentrations of the test compound of 5, 10, 50 and 100 ppm.
(§4) After incubation, in the dark, at 30° C. the wells were examined for the presence or absence of growth. Bacterial and yeast cultures were examined after 24 hours and 72 hours incubation and the fungi cultures after 3, 7 and 10 days.
(§5) By means of the above tests minimum inhibitory concentrations were determined for the various test compounds.

[8] = test system: Chaetomium globosum; test: Minimum inhibitory concentration, Chaetomium globosum (Chg); type: cell-based; conditions: *only tested at 100 ppm
Procedure: (§6) Inocula of the fungi Aspergillus niger, Cladosporium resinae and Chaetomium globosum were prepared containing 5×10^5 conidia/ml in a potato dextrose broth. The potato dextrose broth was prepared by suspending 4 g potato extract and 20 g dextrose in 1 liter of distilled water, warming to achieve solution, separating into aliquots and sterilising by autoclaving at 121° C. for 15 minutes.
as §1, §2, §3, §4, §5

[9] = test system: Escherichia coli; test: Minimum inhibitory concentration, Escherichia coli (Ec); type: cell-based, Escherichia coli (NCIB 9517); conditions: 30° C., 24 and 72 hours
Procedure: (§7) In respect of S. aureus, B. subtilis and E. coli, the microorganisms were cultured in 50 ml aliquots of a tryptone soya broth in 250 ml conical flasks at 30° C. on a rotary shaker at 200 rpm for 24 hours. Tryptone soya broth was prepared by adding 17 g pancreatic digest of casein, 3 g […] digest of soyabean meal, 5 g of sodium chloride, 2.5 g of dipotassium hydrogen phosphate and 2.5 g of dextrose to 1 liter of distilled water, mixing and sterilising by autoclaving at 121° C. for 15 minutes. 1 ml aliquots of the resulting cultures were mixed with 99 ml of fresh tryptone soya broth and used as inocula for tests. […] Test procedures were as follows: (ii) Dilution Series for Other Test Bacteria, Yeast and Filamentous Fungi Dilution series from the stock solution of each compound were prepared in sterile distilled water. These contained 50, 100, 500 and 1000 ppm compound. To duplicate wells of a compartmentalised square petri dish 0.3 ml of each test compound concentration was added together with 2.7 ml of one of the microbial inocula described above. […] After incubation, in the dark, at 30° C. the wells were examined for the presence or absence of growth. Bacterial and yeast cultures were examined after 24 hours and 72 hours incubation and the fungi cultures after 3, 7 and 10 days. By means of the above tests minimum inhibitory concentrations were determined for the various test compounds.

[10] = test system: Bacillus subtilis; test: Minimum inhibitory concentration, Bacillus subtilis (Bs); type: cell-based; conditions: 30° C., 24 and 72 hours
Procedure: as §7

[11] = test system: Staphylococcus aureus; test: Minimum inhibitory concentration, Staphylococcus aureus (Sa); type: cell-based, Staphylococcus aureus (NCIB 6571); conditions: 30° C., 24 and 72 hours
Procedure: as §7

[12] = test system: Aspergillus niger; test: Minimum inhibitory concentration, Aspergillus niger (An); type: cell-based, Aspergillus niger (CMI 17454); conditions: 30° C., 3, 7 and 10 days
Procedure: as §6, §1, §2, §3, §4, §5

[13] = test system: Cladosporium resinae; test: Minimum inhibitory concentration, Cladosporium resinae (Cr); type: cell-based; conditions: Amorphotheca resinae, 30° C., 3, 7 and 10 days
Procedure: as §6, §1, §2, §3, §4, §5

[14] = test system: Erysiphe graminis f.sp. hordei; test: Direct antisporulant activity against barley powdery mildew (Eg); type: in vivo; design: scale not given here; conditions: foliar spray, 1 kg/ha; activity grade 1 or 2, not defined
Text: (f) Activity Against Barley Powdery Mildew (Erysiphe graminis f.sp. hordei; Eg) The test is a direct antisporulant one, using a foliar spray. Leaves of barley seedlings, cultivar Golden Promise, are inoculated by dusting with mildew conidia one day prior to treatment with the test compound. The inoculated plants are kept overnight at glasshouse ambient temperature and humidity prior to treatment. […] After drying, plants are returned to a compartment at ambient temperature and humidity for up to 7 days, followed by assessment. Assessment is based on the percentage of leaf area covered by sporulation compared with that on leaves of control plants.

[15] = test system: Alternaria Solani; test: Direct protectant activity against tomato early blight (As); type: in vivo; design: As: activity against tomato early blight: scale not given here; conditions: foliar spray as under (a), 8 days; activity grade 1 or 2, not defined; note: dose 1000 g/ha
Procedure: (g) Activity Against Tomato Early Blight (Alternaria Solani; As). The test is a direct protectant one using a foliar spray. The upper surfaces of leaves of young tomato plants are sprayed with a solution of active material as described in (a) above. After 24 hours under normal glasshouse conditions, the upper surfaces of the leaves are inoculated by spraying with an aqueous suspension containing 10^4 spores/ml. The inoculated plants are kept for 72 hours in a high humidity compartment and are then removed to lower humidity (50-70% relative humidity). Assessment is made 8 days after inoculation.

[16] = test system: Botrytis cinerea; test: Direct protectant activity against vine grey mould (Bcp); type: in vivo; conditions: foliar spray, 1 kg/ha; activity grade 1 or 2, not defined
Text: (b) Direct Protectant Activity Against Vine Grey Mould (Botrytis cinerea; Bcp) The test is a direct protectant one using a foliar spray and is effected as described under (a), with the difference that the leaves are inoculated by spraying with an aqueous solution containing 10^5 conidia/ml.

| SMILES | Fs: activity against seedling wheat blight [1] | Ln: activity against wheat leafspot [2] | Pvp: direct protectant activity against vine downy mildew [3] | Ph: activity against wheat eyespot [4] | Pr: activity against wheat brown rust [5] | MIC [6] [µg/mL] | MIC [7] [µg/mL] | MIC [8] [µg/mL] | MIC [9] [µg/mL] | MIC [10] [µg/mL] | MIC [11] [µg/mL] | MIC [12] [µg/mL] | MIC [13] [µg/mL] | Eg: activity against barley powdery mildew [14] | As: activity against tomato early blight [15] | Bcp: direct protectant activity against vine grey mould [16] |
| --- | --- | --- | --- | --- | --- | --- | --- | --- | --- | --- | --- | --- | --- | --- | --- | --- |
| Cc1cc2c(c([N+]([O-])=NC#N)c1)OC(C)(C)C2 [Example 7] | 1 | 1 | 2 | 1 | 2 |  |  |  |  |  |  |  |  |  |  |  |
| CCC1Cc2cccc([N+]([O-])=NC#N)c2O1 (centres unmarked) [Example 8] | 2 | 1 |  | 2 |  | > 100 | 100 (≈ 460 µM) | < 100 | > 100 | > 100 | > 100 | 10 (≈ 46 µM) | 10 (≈ 46 µM) | 1 |  |  |
| CCc1cc2cccc([N+]([O-])=NC#N)c2o1 [Example 19] | 1 |  |  | 1 | 2 |  |  |  |  |  |  |  |  | 1 | 2 |  |
| CCCCc1cc2cccc([N+]([O-])=NC#N)c2o1 [Example 20] | 2 | 1 |  |  | 1 | > 100 | > 100 |  | > 100 | > 100 | > 100 | 100 (≈ 411 µM) | 100 (≈ 411 µM) |  |  |  |
| N#CN=[N+]([O-])c1cccc2cc(-c3ccccc3)oc12 [Example 21] |  |  |  |  |  |  |  |  |  |  |  |  |  |  |  | 1 |
| N#CN=[N+]([O-])c1ccc2oc3c(c2c1)CCCC3 [Example 24] | 1 |  | 2 | 1 | 1 |  |  |  |  |  |  |  |  |  | 2 |  |
| COC(=O)N=[N+]([O-])c1cc(C)cc2c1OC(C)C2 (centres unmarked) [Example 45] |  |  | 1 |  |  |  |  |  |  |  |  |  |  | 2 | 1 |  |
